# Reference: PubChem BioAssay (NCI)
#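 Values below derive from 48-hour exposures of cells grown in 96-well plates, with endpoints linearly interpolated between the two concentrations bracketing the appropriate inhibition level. TGI: total growth inhibition.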
# What was measured:
# Assay in all cases: DTP human tumour cell line panel, 48 h
# [1] = system: CCRF-CEM leukemia
# [2] = system: SK-OV-3 ovarian
# [3] = system: RPMI-8226 leukemia
# [4] = system: M14 melanoma
# [5] = system: MALME-3M melanoma
# [6] = system: HT29 colon
# [7] = system: NCI-H23 lung
# [8] = system: 786-0 renal
# [9] = system: SF-268 CNS
# [10] = system: OVCAR-8 ovarian
# [11] = system: SW-620 colon
# [12] = system: DMS 114 small cell lung
# [13] = system: K-562 leukemia
# [14] = system: UACC-257 melanoma
# [15] = system: RXF-631 renal
# [16] = system: TK-10 renal
# [17] = system: COLO 205 colon
# [18] = system: HCC-2998 colon
# [19] = system: A549 NSCLC
# [20] = system: HOP-62 NSCLC
# [21] = system: A498 renal
# [22] = system: EKVX NSCLC
# [23] = system: NCI-H522 lung
# [24] = system: OVCAR-4 ovarian
# [25] = system: SK-MEL-5 melanoma
# [26] = system: SNB-19 CNS
# [27] = system: NCI-H460 lung
# [28] = system: SNB-75 CNS
# [29] = system: SN12C renal
# [30] = system: LXFL 529 NSCLC
# [31] = system: HOP-92 NSCLC
# [32] = system: DMS 273 small cell lung
# [33] = system: HCT-15 colon
# [34] = system: SF-539 CNS
# [35] = system: MOLT-4 leukemia
# [36] = system: IGROV1 ovarian
# [37] = system: ACHN renal
# [38] = system: UO-31 renal
# [39] = system: M19-MEL melanoma
# [40] = system: SK-MEL-28 melanoma
# [41] = system: HL-60(TB) leukemia
# [42] = system: RXF 393 renal
# [43] = system: LOX IMVI melanoma
# [44] = system: KM12 colon
# [45] = system: CAKI-1 renal
# [46] = system: SNB-78 CNS
# [47] = system: UACC-62 melanoma
# [48] = system: U251 CNS
# [49] = system: HCT-116 colon
# [50] = system: OVCAR-5 ovarian
# [51] = system: XF 498 CNS
# [52] = system: SF-295 CNS
# [53] = system: OVCAR-3 ovarian
# [54] = system: SK-MEL-2 melanoma
# [55] = system: DLD-1 colon
# [56] = system: MDA-MB-435
# [57] = system: KM20L2 colon
# [58] = system: BT-549 breast
# [59] = system: HOP-18 NSCLC
# [60] = system: T-47D breast
# [61] = system: HS 578T breast
# [62] = system: NCI-H226 lung
# [63] = system: SR leukemia
# [64] = system: NCI/ADR-RES ovarian
structure (smiles),measurement,setting,value
O[C@]12CCCC[C@H]1CCC2,TGI,[1],> 100 µM
same,TGI,[2],> 100 µM
same,TGI,[3],> 100 µM
same,TGI,[4],> 100 µM
same,TGI,[5],> 100 µM
same,TGI,[6],> 100 µM
same,TGI,[7],> 100 µM
same,TGI,[8],> 100 µM
same,TGI,[9],> 100 µM
same,TGI,[10],> 100 µM
same,TGI,[11],> 100 µM
same,TGI,[12],> 100 µM
same,TGI,[13],> 100 µM
same,TGI,[14],> 100 µM
same,TGI,[15],> 100 µM
same,TGI,[16],> 100 µM
same,TGI,[17],> 100 µM
same,TGI,[18],> 100 µM
same,TGI,[19],> 100 µM
same,TGI,[20],> 100 µM
same,TGI,[21],> 100 µM
same,TGI,[22],> 100 µM
same,TGI,[23],> 100 µM
same,TGI,[24],> 100 µM
same,TGI,[25],> 100 µM
same,TGI,[26],> 100 µM
same,TGI,[27],> 100 µM
same,TGI,[28],> 100 µM
same,TGI,[29],> 100 µM
same,TGI,[30],> 100 µM
same,TGI,[31],> 100 µM
same,TGI,[32],> 100 µM
same,TGI,[33],> 100 µM
same,TGI,[34],> 100 µM
same,TGI,[35],> 100 µM
same,TGI,[36],> 100 µM
same,TGI,[37],> 100 µM
same,TGI,[38],> 100 µM
same,TGI,[39],> 100 µM
same,TGI,[40],> 100 µM
same,TGI,[41],> 100 µM
same,TGI,[42],> 100 µM
same,TGI,[43],> 100 µM
same,TGI,[44],> 100 µM
same,TGI,[45],> 100 µM
same,TGI,[46],> 100 µM
same,TGI,[47],> 100 µM
same,TGI,[48],> 100 µM
same,TGI,[49],> 100 µM
same,TGI,[50],> 100 µM
same,TGI,[51],> 100 µM
same,TGI,[52],> 100 µM
same,TGI,[53],> 100 µM
same,TGI,[54],> 100 µM
CN(C)CCCn1c2c3ccccc3ccc2c2oc(=O)c3ccccc3c21,TGI,[1],> 21.3 µM
same,TGI,[55],2.99 µM
same,TGI,[2],> 61.8 µM
same,TGI,[3],14 µM
same,TGI,[5],29.8 µM
same,TGI,[56],> 20 µM
same,TGI,[6],14.7 µM
same,TGI,[7],13.1 µM
same,TGI,[8],5.54 µM
same,TGI,[9],13.4 µM
same,TGI,[10],8.75 µM
same,TGI,[11],7.95 µM
same,TGI,[12],4.09 µM
same,TGI,[14],19.1 µM
same,TGI,[16],23 µM
same,TGI,[17],5.87 µM
same,TGI,[18],2.46 µM
same,TGI,[19],11 µM
same,TGI,[20],15.4 µM
same,TGI,[21],28.6 µM
same,TGI,[22],60.7 µM
same,TGI,[23],10.6 µM
same,TGI,[24],> 95 µM
same,TGI,[25],23.6 µM
same,TGI,[26],29.2 µM
same,TGI,[27],6.64 µM
same,TGI,[28],12 µM
same,TGI,[57],2.78 µM
same,TGI,[30],10 µM
same,TGI,[31],45.7 µM
same,TGI,[32],4.22 µM
same,TGI,[58],> 57.8 µM
same,TGI,[33],4.34 µM
same,TGI,[34],7.82 µM
same,TGI,[35],5.19 µM
same,TGI,[59],40.2 µM
same,TGI,[60],> 100 µM
same,TGI,[36],23.5 µM
same,TGI,[37],15.7 µM
same,TGI,[38],15.1 µM
same,TGI,[39],8.86 µM
same,TGI,[40],12.3 µM
same,TGI,[41],93.9 µM
same,TGI,[42],2.75 µM
same,TGI,[43],13.3 µM
same,TGI,[44],10.3 µM
same,TGI,[45],27.6 µM
same,TGI,[46],39 µM
same,TGI,[47],20.3 µM
same,TGI,[48],9.26 µM
same,TGI,[61],> 65.6 µM
same,TGI,[62],> 51.8 µM
same,TGI,[49],5.05 µM
same,TGI,[50],55.5 µM
same,TGI,[63],5.56 µM
same,TGI,[64],> 26.9 µM
same,TGI,[51],9.55 µM
same,TGI,[52],7.17 µM
same,TGI,[53],9.22 µM
same,TGI,[54],21.1 µM
COc1cccc(NC(=O)N/C(=C/c2ccc(N(CCC#N)CCC#N)cc2)NC(=O)c2cc([N+](=O)[O-])ccc2Cl)c1,TGI,[1],> 100 µM
same,TGI,[55],> 100 µM
same,TGI,[2],> 100 µM
same,TGI,[3],> 100 µM
same,TGI,[7],> 100 µM
same,TGI,[9],> 100 µM
same,TGI,[10],> 100 µM
same,TGI,[12],> 100 µM
same,TGI,[13],> 100 µM
same,TGI,[15],> 100 µM
same,TGI,[16],> 100 µM
same,TGI,[17],> 100 µM
same,TGI,[19],> 100 µM
same,TGI,[20],> 100 µM
same,TGI,[22],> 100 µM
same,TGI,[23],> 100 µM
same,TGI,[24],> 100 µM
same,TGI,[25],> 100 µM
same,TGI,[26],> 100 µM
same,TGI,[29],> 100 µM
same,TGI,[57],> 100 µM
same,TGI,[30],> 100 µM
same,TGI,[31],> 100 µM
same,TGI,[32],> 100 µM
same,TGI,[33],> 100 µM
same,TGI,[34],> 100 µM
same,TGI,[35],> 100 µM
same,TGI,[59],> 100 µM
same,TGI,[36],> 100 µM
same,TGI,[37],> 100 µM
same,TGI,[38],> 100 µM
same,TGI,[39],> 100 µM
same,TGI,[40],> 100 µM
same,TGI,[42],> 100 µM
same,TGI,[43],> 100 µM
same,TGI,[44],> 100 µM
same,TGI,[45],> 100 µM
same,TGI,[46],> 100 µM
same,TGI,[47],> 100 µM
same,TGI,[48],> 100 µM
same,TGI,[62],> 100 µM
same,TGI,[49],> 100 µM
same,TGI,[50],> 100 µM
same,TGI,[63],> 100 µM
same,TGI,[51],> 100 µM
same,TGI,[52],> 100 µM
same,TGI,[53],> 100 µM
same,TGI,[54],> 100 µM
